In patent publication US9675068B2, “Solid form sodium lauryl sulfate (SLS) crawling pest elimination composition” (ECOLAB USA INC., priority 2008, dated 2017):

Assay: Ability of SLS forms to go into solution in water
Format: physicochemical
Conditions: at 12% and 18%
From the text: In one embodiment, the pesticide composition of the present invention includes a combination of sodium lauryl sulfate (SLS) and water. In particular, the pesticide composition includes a combination of a solid form of sodium lauryl sulfate and water. Suitable component concentrations for a concentrate of the pesticide composition include between about 90% and about 100% sodium lauryl sulfate by weight and balance water, particularly between about 93% and about 100% sodium lauryl sulfate by weight and balance water and more particularly between about 95% and about 100% sodium lauryl sulfate by weight and balance water. Suitable component concentrations for a use solution of the pesticide composition include between about 1% and about 10% sodium lauryl sulfate by weight and balance water and particularly between about 1% and about 6% sodium lauryl sulfate by weight and balance water. At concentrations higher than about 12% by weight sodium lauryl sulfate, solid form sodium lauryl sulfate may not effectively form a solution. In other embodiments, similar intermediate concentrate and use concentrations may also be present in the cleaning compositions of the invention.
The compositions of Examples 1, 2 and 3 are compositions of the present invention using needle form sodium lauryl sulfate (SLS) as the active ingredient in a pesticide composition. […]

- going into solution in water: would not go into solution
SMILES: CCCCCCCCCCCCOS(=O)(=O)[O-].[Na+] [needle form SLS, sodium lauryl sulfate]
